Laboratory results: publication PMC12102759 (Protein Science : A Publication of the Protein Society, 2025)

Tested on: G3BP1 NFT2
Format: binding, human
Settings: library DMS-CoV; bait G3BP1 NFT2; prey N; peptide RNAPRITFGGPSDSTG; listed as aa = residue placed at this position; column sums to 1

**Q.** With RNAPRITFGGPSDSTG G9Y (RNAPRITFYGPSDSTG) as the sequence, how does the “DMS PSSM value, G (position 9)” value read?
**A.** Its value is 0.

**Q.** Which “DMS PSSM value, I (position 6)” value does the source give for RNAPRITFGGPSDSTG I6Q (RNAPRQTFGGPSDSTG) here?
**A.** The value was 0.

**Q.** Which “DMS PSSM value, R (position 5)” value does the source give for RNAPRITFGGPSDSTG R5K (RNAPKITFGGPSDSTG) here?
**A.** Its value is 0.0001577.

**Q.** How did the “DMS PSSM value, P (position 4)” value turn out when RNAPRITFGGPSDSTG P4A (RNAARITFGGPSDSTG) was run?
**A.** The value was 0.

**Q.** “RNAPRITFGGPSDSTG G10V (RNAPRITFGVPSDSTG)” was tested. Which “DMS PSSM value, G (position 10)” value did it give?
**A.** Its value is 0.

**Q.** How did the “DMS PSSM value, N (position 2)” value turn out when RNAPRITFGGPSDSTG N2V (RVAPRITFGGPSDSTG) was run?
**A.** The value was 0.

**Q.** Which “DMS PSSM value, G (position 16)” value does the source give for “RNAPRITFGGPSDSTG G16V (RNAPRITFGGPSDSTV)” here?
**A.** The value was 0.

**Q.** Which “DMS PSSM value, S (position 14)” value does the source give for “RNAPRITFGGPSDSTG S14D (RNAPRITFGGPSDDTG)” here?
**A.** Its value is 0.

**Q.** How did the “DMS PSSM value, S (position 12)” value turn out when “RNAPRITFGGPSDSTG S12Q (RNAPRITFGGPQDSTG)” was run?
**A.** Its value is 0.

**Q.** “RNAPRITFGGPSDSTG G10W (RNAPRITFGWPSDSTG)” was tested. Which “DMS PSSM value, G (position 10)” value did it give?
**A.** Its value is 0.

**Q.** With RNAPRITFGGPSDSTG G9Q (RNAPRITFQGPSDSTG) as the sequence, how does the “DMS PSSM value, G (position 9)” value read?
**A.** Its value is 0.

**Q.** Which “DMS PSSM value, F (position 8)” value does the source give for RNAPRITFGGPSDSTG F8T (RNAPRITTGGPSDSTG) here?
**A.** Its value is 0.

**Q.** With RNAPRITFGGPSDSTG R5F (RNAPFITFGGPSDSTG) as the sequence, how does the “DMS PSSM value, R (position 5)” value read?
**A.** Its value is 0.

**Q.** How did the “DMS PSSM value, P (position 11)” value turn out when “RNAPRITFGGPSDSTG P11F (RNAPRITFGGFSDSTG)” was run?
**A.** Its value is 0.

**Q.** How did the “DMS PSSM value, A (position 3)” value turn out when RNAPRITFGGPSDSTG A3T (RNTPRITFGGPSDSTG) was run?
**A.** The value was 0.

**Q.** Which “DMS PSSM value, T (position 15)” value does the source give for “RNAPRITFGGPSDSTG T15N (RNAPRITFGGPSDSNG)” here?
**A.** The value was 0.

**Q.** How did the “DMS PSSM value, I (position 6)” value turn out when RNAPRITFGGPSDSTG I6D (RNAPRDTFGGPSDSTG) was run?
**A.** The value was 0.

**Q.** For RNAPRITFGGPSDSTG A3F (RNFPRITFGGPSDSTG), which “DMS PSSM value, A (position 3)” value is on record?
**A.** The value was 0.

**Q.** How did the “DMS PSSM value, A (position 3)” value turn out when RNAPRITFGGPSDSTG A3G (RNGPRITFGGPSDSTG) was run?
**A.** Its value is 0.6104.

**Q.** Which “DMS PSSM value, T (position 15)” value does the source give for “RNAPRITFGGPSDSTG T15A (RNAPRITFGGPSDSAG)” here?
**A.** Its value is 0.

**Q.** Which “DMS PSSM value, I (position 6)” value does the source give for RNAPRITFGGPSDSTG I6H (RNAPRHTFGGPSDSTG) here?
**A.** Its value is 0.

**Q.** How did the “DMS PSSM value, D (position 13)” value turn out when “RNAPRITFGGPSDSTG D13L (RNAPRITFGGPSLSTG)” was run?
**A.** The value was 0.

**Q.** How did the “DMS PSSM value, P (position 4)” value turn out when RNAPRITFGGPSDSTG P4K (RNAKRITFGGPSDSTG) was run?
**A.** Its value is 0.

**Q.** Which “DMS PSSM value, G (position 10)” value does the source give for “RNAPRITFGGPSDSTG G10I (RNAPRITFGIPSDSTG)” here?
**A.** Its value is 0.

**Q.** With “RNAPRITFGGPSDSTG T15S (RNAPRITFGGPSDSSG)” as the sequence, how does the “DMS PSSM value, T (position 15)” value read?
**A.** The value was 0.

**Q.** How did the “DMS PSSM value, P (position 11)” value turn out when “RNAPRITFGGPSDSTG P11Y (RNAPRITFGGYSDSTG)” was run?
**A.** Its value is 0.

**Q.** For RNAPRITFGGPSDSTG T7L (RNAPRILFGGPSDSTG), which “DMS PSSM value, T (position 7)” value is on record?
**A.** Its value is 0.

**Q.** Which “DMS PSSM value, A (position 3)” value does the source give for RNAPRITFGGPSDSTG here?
**A.** The value was 0.

**Q.** And the “DMS PSSM value, D (position 13)” value?
**A.** Its value is 0.

**Q.** What about the “DMS PSSM value, F (position 8)” value of the same sequence?
**A.** The value was 1.

**Q.** And the “DMS PSSM value, G (position 9)” value?
**A.** Its value is 0.

**Q.** What about the “DMS PSSM value, G (position 10)” value of the same sequence?
**A.** The value was 0.

**Q.** What about the “DMS PSSM value, G (position 16)” value of the same sequence?
**A.** The value was 0.

**Q.** And the “DMS PSSM value, I (position 6)” value?
**A.** The value was 0.

**Q.** And the “DMS PSSM value, N (position 2)” value?
**A.** Its value is 0.

**Q.** And the “DMS PSSM value, P (position 4)” value?
**A.** Its value is 0.

**Q.** And the “DMS PSSM value, P (position 11)” value?
**A.** The value was 1.

**Q.** What about the “DMS PSSM value, R (position 5)” value of the same sequence?
**A.** The value was 0.

**Q.** And the “DMS PSSM value, S (position 12)” value?
**A.** The value was 0.

**Q.** And the “DMS PSSM value, S (position 14)” value?
**A.** The value was 0.

**Q.** And the “DMS PSSM value, T (position 7)” value?
**A.** The value was 0.

**Q.** And the “DMS PSSM value, T (position 15)” value?
**A.** The value was 0.

**Q.** With “RNAPRITFGGPSDSTG P11D (RNAPRITFGGDSDSTG)” as the sequence, how does the “DMS PSSM value, P (position 11)” value read?
**A.** The value was 0.

**Q.** “RNAPRITFGGPSDSTG T15R (RNAPRITFGGPSDSRG)” was tested. Which “DMS PSSM value, T (position 15)” value did it give?
**A.** Its value is 0.

**Q.** RNAPRITFGGPSDSTG N2R (RRAPRITFGGPSDSTG) was tested. Which “DMS PSSM value, N (position 2)” value did it give?
**A.** The value was 0.

**Q.** Which “DMS PSSM value, G (position 9)” value does the source give for RNAPRITFGGPSDSTG G9D (RNAPRITFDGPSDSTG) here?
**A.** The value was 1.

**Q.** For “RNAPRITFGGPSDSTG G10A (RNAPRITFGAPSDSTG)”, which “DMS PSSM value, G (position 10)” value is on record?
**A.** The value was 1.

**Q.** For RNAPRITFGGPSDSTG N2Q (RQAPRITFGGPSDSTG), which “DMS PSSM value, N (position 2)” value is on record?
**A.** Its value is 0.

**Q.** RNAPRITFGGPSDSTG P4Q (RNAQRITFGGPSDSTG) was tested. Which “DMS PSSM value, P (position 4)” value did it give?
**A.** The value was 0.08846.

**Q.** Which “DMS PSSM value, S (position 12)” value does the source give for “RNAPRITFGGPSDSTG S12H (RNAPRITFGGPHDSTG)” here?
**A.** The value was 0.

**Q.** How did the “DMS PSSM value, S (position 12)” value turn out when “RNAPRITFGGPSDSTG S12E (RNAPRITFGGPEDSTG)” was run?
**A.** The value was 0.6084.

**Q.** With RNAPRITFGGPSDSTG N2K (RKAPRITFGGPSDSTG) as the sequence, how does the “DMS PSSM value, N (position 2)” value read?
**A.** The value was 0.

**Q.** With RNAPRITFGGPSDSTG I6R (RNAPRRTFGGPSDSTG) as the sequence, how does the “DMS PSSM value, I (position 6)” value read?
**A.** Its value is 0.

**Q.** “RNAPRITFGGPSDSTG S12F (RNAPRITFGGPFDSTG)” was tested. Which “DMS PSSM value, S (position 12)” value did it give?
**A.** The value was 0.

**Q.** With RNAPRITFGGPSDSTG R5H (RNAPHITFGGPSDSTG) as the sequence, how does the “DMS PSSM value, R (position 5)” value read?
**A.** Its value is 0.001007.

**Q.** “RNAPRITFGGPSDSTG G16K (RNAPRITFGGPSDSTK)” was tested. Which “DMS PSSM value, G (position 16)” value did it give?
**A.** The value was 0.

**Q.** “RNAPRITFGGPSDSTG S12N (RNAPRITFGGPNDSTG)” was tested. Which “DMS PSSM value, S (position 12)” value did it give?
**A.** The value was 0.

**Q.** “RNAPRITFGGPSDSTG S14H (RNAPRITFGGPSDHTG)” was tested. Which “DMS PSSM value, S (position 14)” value did it give?
**A.** Its value is 0.

**Q.** With RNAPRITFGGPSDSTG F8E (RNAPRITEGGPSDSTG) as the sequence, how does the “DMS PSSM value, F (position 8)” value read?
**A.** Its value is 0.

**Q.** Which “DMS PSSM value, G (position 16)” value does the source give for “RNAPRITFGGPSDSTG G16D (RNAPRITFGGPSDSTD)” here?
**A.** Its value is 0.

**Q.** Which “DMS PSSM value, G (position 10)” value does the source give for “RNAPRITFGGPSDSTG G10L (RNAPRITFGLPSDSTG)” here?
**A.** The value was 0.

**Q.** With RNAPRITFGGPSDSTG N2L (RLAPRITFGGPSDSTG) as the sequence, how does the “DMS PSSM value, N (position 2)” value read?
**A.** Its value is 0.

**Q.** How did the “DMS PSSM value, F (position 8)” value turn out when RNAPRITFGGPSDSTG F8N (RNAPRITNGGPSDSTG) was run?
**A.** Its value is 0.
